The NIST ThermoML archive (doi:10.1016/j.jct.2005.05.019)

Details: Liquid; for mass density: Bellows volumetry; for vapor or sublimation pressure: Closed cell (Static) method

CC(C)C [2-methylpropane]
mass density [kg/m3]
Details	280 K	300 K	320 K	340 K	360 K
1000 kPa	574.99	550.5	523.69	–	–
2000 kPa	576.63	–	526.51	496.95	461.05
3000 kPa	578.23	554.67	529.22	500.67	467.32
5000 kPa	581.15	558.59	534.28	507.71	477.66
10000 kPa	587.88	567.19	545.21	521.75	–
20000 kPa	600.12	581.58	562.64	542.79	–
30000 kPa	610.42	593.56	576.49	558.72	–
40000 kPa	619.36	603.71	587.85	571.75	–
50000 kPa	627.41	612.8	597.69	582.77	–
60000 kPa	634.74	620.94	606.61	592.49	–
70000 kPa	641.52	628.12	614.55	601.18	–
80000 kPa	647.64	634.84	621.94	609.11	–
90000 kPa	653.57	641.05	628.85	616.5	–
100000 kPa	659	646.84	635.06	622.79	–
120000 kPa	669.09	657.68	646.41	634.99	–
140000 kPa	678.21	667.21	656.55	645.72	–
160000 kPa	686.38	676.01	665.84	655.32	–
180000 kPa	694.06	684	674.38	664.26	–
200000 kPa	701.06	691.43	682.01	672.25	–

Details	vapor or sublimation pressure [kPa]
280 K	199.8
300 K	369.8
